Results taken from US11981618B2, “P62 ligand compound, and composition for preventing, ameliorating or treating proteinopathies comprising the same” (AUTOTAC INC., priority 2018, dated 2024).
Entries after “also recorded” stand apart in the source; their conditions may differ.

Target: T1, p62 protein (Homo sapiens, UniProt Q13501)
T1 construct: endogenous in cells; host or cells: HEK293 (cell lysate treated with compounds)
Test: Oligomerization activity of p62 protein in cultured cells by immunoblotting
Type: cell-based
Conditions: HEK293 cell lysate treated with test compounds at room temperature for 2 hours; immunoblot, FIG. 2
Description: In order to evaluate the p62 protein oligomerization activity efficacy by the compounds (Examples 1-19), HEK293 cell line, which is human embryonic kidney-derived cell, was collected. As representative compounds among the present compounds, YOK-1104, YOK-2204, YOK-3304, YOK-1204, YOK-4404, YOK-1107, YOK-1109, YOK-2207, YOK-2209, YT-4-1, YT-4-2, YT-6-1, YT-6-2, YT-6-7, YT-6-8, YT-9-1, YT-9-2 were selected. In order to measure intracellular p62 protein activation and oligomerization according to the treatment with these selected representative compounds, the respective cells were dispensed into a pi dish. The cells were collected after further culturing for 24 hours so that the cells were completely attached to the surface of the plate. 100 ul of lysis buffer (20 mM Tris, pH 7.4), 150 mM NaCl, 1% Triton X-100, 2 mM NaF, 2 mM EDTA, 2 mM beta-glycerophosphate, 5 mM sodium orthovanadate, 1 mM PMSF, leupeptin, aprotinin) were injected into each sample and the cells were lysed. Based on the measured total protein concentration, each sample was treated with test compounds at room temperature for 2 hours, and then a sample buffer was added and allowed to react at 95° C. for 10 minutes. 25 ul was taken from the samples after the reaction, and dispensed into each well of acrylamide gel, and then immunoblotting was performed.

T1 sequence (Q13501 whole entry): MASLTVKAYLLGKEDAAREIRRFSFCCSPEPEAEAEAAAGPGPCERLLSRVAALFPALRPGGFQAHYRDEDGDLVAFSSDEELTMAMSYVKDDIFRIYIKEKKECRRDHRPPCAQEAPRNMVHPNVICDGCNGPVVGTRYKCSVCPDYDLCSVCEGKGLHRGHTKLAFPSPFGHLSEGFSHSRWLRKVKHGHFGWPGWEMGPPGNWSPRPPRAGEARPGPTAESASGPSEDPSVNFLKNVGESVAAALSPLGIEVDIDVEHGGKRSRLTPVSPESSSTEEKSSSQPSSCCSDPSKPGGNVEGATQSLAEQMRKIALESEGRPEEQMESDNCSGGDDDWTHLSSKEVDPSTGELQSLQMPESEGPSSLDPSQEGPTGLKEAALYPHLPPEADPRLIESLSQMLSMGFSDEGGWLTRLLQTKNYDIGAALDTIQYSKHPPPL

| SMILES | p62 protein oligomerization activity (p62 monomer, oligomers and high-molecular aggregates) |
| --- | --- |
| CC(C)NC[C@@H](O)COc1ccc(OCc2ccccc2)c(OCc2ccccc2)c1 [YOK-1104, (R)-1-(3,4-bis(benzyloxy)phenoxy)-3-(isopropylamino)propan-2-ol] | increasing the p62 protein oligomerization activity |
| N=C(N)NC[C@@H](O)COc1ccc(OCc2ccccc2)c(OCc2ccccc2)c1 [YOK-1107, (R)-1-(3-(3,4-bis(benzyloxy)phenoxy)-2-hydroxypropyl)guanidine] | increasing the p62 protein oligomerization activity |
| N=C(N)NCCNC[C@@H](O)COc1ccc(OCc2ccccc2)c(OCc2ccccc2)c1 [YOK-1109, (R)-1-(2-((3-(3,4-bis(benzyloxy)phenoxy)-2-hydroxypropyl)amino)ethyl)guanidine] | increasing the p62 protein oligomerization activity |
| N=C(N)NC[C@@H](O)COc1ccc(OCCc2ccccc2)c(OCCc2ccccc2)c1 [YOK-2207, (R)-1-(3-(3,4-diphenethoxyphenoxy)-2-hydroxypropyl)guanidine] | increasing the p62 protein oligomerization activity |
| N=C(N)NCCNC[C@@H](O)COc1ccc(OCCc2ccccc2)c(OCCc2ccccc2)c1 [YOK-2209, (R)-1-(2-((3-(3,4-diphenethoxyphenoxy)-2-hydroxypropyl)amino)ethyl)guanidine] | increasing the p62 protein oligomerization activity |
| CC(C)NC[C@@H](O)COc1ccc(OCc2ccc(Cl)cc2)c(OCc2ccc(Cl)cc2)c1 [YT-4-1, (R)-1-(3,4-bis((4-chlorobenzyl)oxy)phenoxy)-3-(isopropylamino)propan-2-ol] | increasing the p62 protein oligomerization activity |
| CC(C)NC[C@@H](O)COc1ccc(OCc2ccc(F)cc2)c(OCc2ccc(F)cc2)c1 [YT-4-2, (R)-1-(3,4-bis((4-fluorobenzyl)oxy)phenoxy)-3-(isopropylamino)propan-2-ol] | increasing the p62 protein oligomerization activity |
| OCCNC[C@@H](O)COc1ccc(OCc2ccc(Cl)cc2)c(OCc2ccc(Cl)cc2)c1 [YT-6-1] | increasing the p62 protein oligomerization activity |
| OCCNC[C@@H](O)COc1ccc(OCc2ccc(F)cc2)c(OCc2ccc(F)cc2)c1 [YT-6-2] | increasing the p62 protein oligomerization activity |
| OCCNC[C@@H](O)COc1cccc(OCc2ccc(Cl)cc2)c1 [YT-6-7, (R)-1-(3-((4-chlorobenzyl)oxy)phenoxy)-3-((2-hydroxyethyl)amino)propan-2-ol] | increasing the p62 protein oligomerization activity |

System: LC3
Test: Autophagy activity in cultured cells by immunoblotting using LC3 as a marker
Type: cell-based, human
Conditions: HeLa; 5 μM; treated for 1, 3, 6, 12, 24, 48 hours; FIG. 4
Description: In order to evaluate the autophagy activity efficacy by the compounds (Examples 1-19), HeLa cell line, which is a cell line derived from a cervical cancer patient, was cultured using a DMEM medium containing 10% FBS and 1% streptomycin/penicillin in an incubator with 5% carbon dioxide. As representative compounds among the present compounds, YOK-1107, YOK-4404 and YOK-1104 were selected. In order to measure autophagy activity according to the treatment with these selected representative compounds, the respective cells were dispensed into 6 well plates. Additional cultures were performed […] so that the cells were completely attached to the surface of the plate. To find the concentration at which the respective compounds could increase the phenomenon of autophagy, the test compounds were diluted at 1, 2, 5, 10 and 20 μM and treated. After treatment with the respective compounds, the cells were cultured again in a cell incubator for 24 hours, and then the cells were collected. To extract proteins from the collected cells, 100 ul of lysis buffer (20 mM Tris (pH 7.4), 150 mM NaCl, 1% Triton X-100, 2 mM NaF, 2 mM EDTA, 2 mM beta-glycerophosphate, 5 mM sodium orthovanadate, 1 mM PMSF, leupeptin, aprotinin) was injected into each sample, and cells were lysed. Based on the measured total protein concentration, a sample buffer was added to each sample and allowed to react at 100° C. for 5 minutes. 5 ul was taken from the samples after the reaction, and dispensed into each well of acrylamide gel, and then immunoblotting was performed.
In order to investigate the autophagy activity efficacy by the compounds (Examples 1-19), immunoblotting was performed in the same manner as in Experimental Example 2 using LC3 as a marker. As for the difference, in order to evaluate the treatment time required for activation and the activity retention time, as the representative compounds selected among the present compounds, 5 μM of YOK-1107, YOK-1204, YOK-1304, YOK-2204, YOK-3304, […] treated for 1, 3, 6, 12, 24, 48 hours. On the other hand, as the representative compounds selected among the compounds of the present invention, […] YOK-1107, YOK-1109, YOK-2207, YOK-2209, YT-4-1, YT-4-2, YT-6-1, YT-6-2, YT-6-8, YT-6-7, YT-9-1, YT-9-2 were treated for 24 hours.
In order to investigate the autophagy activity efficacy of control compounds, immunoblotting was performed in the same manner as in Experimental Example 2 by using LC3 as a marker. As the control compounds, compounds having the following structure were used.

| SMILES | autophagy activity (level of LC3) |
| --- | --- |
| N=C(N)NC[C@@H](O)COc1ccc(OCc2ccccc2)c(OCc2ccccc2)c1 [YOK-1107, (R)-1-(3-(3,4-bis(benzyloxy)phenoxy)-2-hydroxypropyl)guanidine] | gradually increased; also recorded: increasing the autophagy activity |
| CC(C)NC[C@@H](O)COc1ccc(OCc2ccccc2)c(OCCCc2ccccc2)c1 [YOK-1304, (R)-1-(4-(benzyloxy)-3-(3-phenylpropoxy)phenoxy)-3-(isopropylamino)propan-2-ol] | gradually increased; also recorded: increasing the autophagy activity |

Same assay, conditions: HeLa; 1, 2, 5, 10 and 20 μM; 24 hours; FIG. 3

| SMILES | autophagy activity (level of LC3) |
| --- | --- |
| O=Cc1ccc(OCCCc2ccccc2)c(OCCCc2ccccc2)c1 [Example 3301, 3,4-bis(3-phenylpropoxy)benzaldehyde] | increasing the autophagy activity |
| CC(C)NC[C@@H](O)COc1ccc(OCc2ccccc2)c(OCc2ccccc2)c1 [YOK-1104, (R)-1-(3,4-bis(benzyloxy)phenoxy)-3-(isopropylamino)propan-2-ol] | increasing the autophagy activity |
| N=C(N)NC[C@@H](O)COc1ccc(OCc2ccccc2)c(OCc2ccccc2)c1 [YOK-1107, (R)-1-(3-(3,4-bis(benzyloxy)phenoxy)-2-hydroxypropyl)guanidine] | increasing the autophagy activity |

Same assay, conditions: HeLa; different concentrations and different times; FIG. 5

| SMILES | autophagy activity (level of LC3), control compounds |
| --- | --- |
| O=Cc1ccc(OCc2ccccc2)c(OCc2ccccc2)c1 [Example 1101, 3,4-bis(benzyloxy)benzaldehyde, reference compound] | do not increase autophagy activity |
| Oc1ccc(OCc2ccccc2)c(OCc2ccccc2)c1 [Example 1102, 3,4-bis(benzyloxy)phenol, reference compound] | do not increase autophagy activity |
| c1ccc(COc2ccc(OC[C@H]3CO3)cc2OCc2ccccc2)cc1 [Example 1103, (R)-2-((3,4-bis(benzyloxy)phenoxy)methyl)oxirane, reference compound] | do not increase autophagy activity |
| O=Cc1ccc(OCc2ccccc2)c(OCCc2ccccc2)c1 [Example 1201, 4-(benzyloxy)-3-phenethoxybenzaldehyde, reference compound] | do not increase autophagy activity |
| Oc1ccc(OCc2ccccc2)c(OCCc2ccccc2)c1 [Example 1202, 4-(benzyloxy)-3-phenethoxyphenol, reference compound] | do not increase autophagy activity |
| c1ccc(CCOc2cc(OC[C@H]3CO3)ccc2OCc2ccccc2)cc1 [Example 1203, (R)-2-((4-(benzyloxy)-3-phenethoxyphenoxy)methyl)oxirane, reference compound] | do not increase autophagy activity |
| O=Cc1ccc(OCc2ccccc2)c(OCCCc2ccccc2)c1 [Example 1301, 4-(benzyloxy)-3-(3-phenylpropoxy)benzaldehyde, reference compound] | do not increase autophagy activity |
| Oc1ccc(OCc2ccccc2)c(OCCCc2ccccc2)c1 [Example 1302, 4-(benzyloxy)-3-(3-phenylpropoxy)phenol, reference compound] | do not increase autophagy activity |
| O=Cc1ccc(OCc2ccccc2)c(OCCCCc2ccccc2)c1 [Example 1401, 4-(benzyloxy)-3-(4-phenylbutoxy)benzaldehyde, reference compound] | do not increase autophagy activity |
| Oc1ccc(OCc2ccccc2)c(OCCCCc2ccccc2)c1 [Example 1402, 4-(benzyloxy)-3-(4-phenylbutoxy)phenol, reference compound] | do not increase autophagy activity |
| O=Cc1ccc(OCCc2ccccc2)c(OCCc2ccccc2)c1 [Example 2201, 3,4-diphenethoxybenzaldehyde, reference compound] | do not increase autophagy activity |
| Oc1ccc(OCCc2ccccc2)c(OCCc2ccccc2)c1 [Example 2202, 3,4-diphenethoxyphenol, reference compound] | do not increase autophagy activity |
| Oc1ccc(OCCCCc2ccccc2)c(OCCCCc2ccccc2)c1 [Example 4402, 3,4-bis(4-phenylbutoxy)phenol, reference compound] | do not increase autophagy activity |

Same assay, conditions: HeLa; treated for 24 hours (concentration not given); FIG. 4

| SMILES | autophagy activity (level of LC3) |
| --- | --- |
| N=C(N)NC[C@@H](O)COc1ccc(OCc2ccccc2)c(OCc2ccccc2)c1 [YOK-1107, (R)-1-(3-(3,4-bis(benzyloxy)phenoxy)-2-hydroxypropyl)guanidine] | gradually increased |
| N=C(N)NCCNC[C@@H](O)COc1ccc(OCc2ccccc2)c(OCc2ccccc2)c1 [YOK-1109, (R)-1-(2-((3-(3,4-bis(benzyloxy)phenoxy)-2-hydroxypropyl)amino)ethyl)guanidine] | gradually increased |
| N=C(N)NC[C@@H](O)COc1ccc(OCCc2ccccc2)c(OCCc2ccccc2)c1 [YOK-2207, (R)-1-(3-(3,4-diphenethoxyphenoxy)-2-hydroxypropyl)guanidine] | gradually increased |
| N=C(N)NCCNC[C@@H](O)COc1ccc(OCCc2ccccc2)c(OCCc2ccccc2)c1 [YOK-2209, (R)-1-(2-((3-(3,4-diphenethoxyphenoxy)-2-hydroxypropyl)amino)ethyl)guanidine] | gradually increased |
| CC(C)NC[C@@H](O)COc1ccc(OCc2ccc(Cl)cc2)c(OCc2ccc(Cl)cc2)c1 [YT-4-1, (R)-1-(3,4-bis((4-chlorobenzyl)oxy)phenoxy)-3-(isopropylamino)propan-2-ol] | gradually increased |
| CC(C)NC[C@@H](O)COc1ccc(OCc2ccc(F)cc2)c(OCc2ccc(F)cc2)c1 [YT-4-2, (R)-1-(3,4-bis((4-fluorobenzyl)oxy)phenoxy)-3-(isopropylamino)propan-2-ol] | gradually increased |
| OCCNC[C@@H](O)COc1ccc(OCc2ccc(Cl)cc2)c(OCc2ccc(Cl)cc2)c1 [YT-6-1] | gradually increased |
| OCCNC[C@@H](O)COc1ccc(OCc2ccc(F)cc2)c(OCc2ccc(F)cc2)c1 [YT-6-2] | gradually increased |
| OCCNC[C@@H](O)COc1cccc(OCc2ccc(Cl)cc2)c1 [YT-6-7, (R)-1-(3-((4-chlorobenzyl)oxy)phenoxy)-3-((2-hydroxyethyl)amino)propan-2-ol] | gradually increased |
